Data on 13 compounds can be found in patent publication US20250313560A1, “Novel bicyclic benzylamido pyridine derivatives as SOS1 inhibitors” (Boehringer Ingelheim International GmbH, priority 2024, published 2025).

Like-named read-outs stand apart in the source and are kept apart here. Where only a bound is given, the exact number is not on record here.

The target in one data set is SOS1 and KRAS G12C (Homo sapiens (Human), UniProt Q07889). Description: KRAS::SOS1 AlphaScreen binding assay (KRAS G12C). Particulars: average of at least two measurements. The method, then:
(§1) Low IC50 values are indicative of high potency of the SOS1 inhibitor compound in this assay setting:
(§2) • GST-tagged SOS1 (564_1049_GST_TEV_ECO) produced in-house • 6xHis-Tev-K-RasG12D/G12C(1-169)Avi produced in-house • GDP (Sigma Cat No G7127) • AlphaLISA Glutathione Acceptor Beads (PerkinElmer, Cat No AL109) • AlphaScreen Streptavidin Donor Beads (PerkinElmer Cat No 6760002) • Assay plates: Proxiplate-384 PLUS, white (PerkinElmer, Cat No 6008289)
(§3) [formula] • KRAS::SOS1 GDP mix: • 7.5 nM (final assay concentration) K-RasG12C, 10 nM (final assay concentration) K-RasG12D, 10 μM (final assay concentration) GDP and 5 nM (final assay concentration) GST-SOS1 are mixed in assay buffer prior to use and kept at rt. Bead mix: • AlphaLISA Glutathione Acceptor Beads and AlphaScreen Streptavidin Donor Beads are mixed in the dark in assay buffer at a concentration of 10 μg/mL (final assay concentration) each prior to use and kept at rt.
(§4) Compounds are diluted to a final start concentration of 100 μM and are tested in duplicate. Assay-ready plates (ARPs) are generated using an Access Labcyte Workstation with a Labcyte Echo 550 or 555 acoustic dispenser. For compound a start concentration of 100 μM, 150 nL of compound solution is transferred per well in 11 concentrations in duplicate with serial 1:5 dilutions.
(§5) The assay is run using a fully automated robotic system in a darkened room below 100 Lux. 10 μL of KRAS::SOS1 GDP mix is added into columns 1-24 to the 150 nL of compound solution (final dilution in the assay 1:100, final DMSO concentration 1%).
(§6) After a 30 minute incubation time, 5 μL of bead mix is added into columns 1-23. Plates are kept at rt in a darkened incubator. After a further 60 minutes incubation, the signal is measured using a PerkinElmer Envision HTS Multilabel Reader using the AlphaScreen specifications from PerkinElmer. Each plate contains the following controls:
(§7) diluted DMSO+KRAS::SOS1 GDP mix+bead mix
(§8) diluted DMSO+KRAS::SOS1 GDP mix
(§9) Result calculation: IC50 values are calculated and analyzed using a 4 parametric logistic model.
(§10) Table 1: Inhibition values for KRAS G12C as well as for KRAS G12D. […] The value indicates an average value of at least two measurements.
For orientation: Bead proximity is the source of the signal in Alpha formats.

A further data set deals with SOS1 and KRAS G12D (Homo sapiens (Human), UniProt Q07889). Description: KRAS::SOS1 AlphaScreen binding assay (KRAS G12D). The settings on record: average of at least two measurements. The method, then: as §1, §2, §3, §4, §5, §6, §7, §8, §9, §10
In data set [1] the test system is ERK phosphorylation in NCI-H358 SOS2 KO cells (KRAS G12C). Description: Erk phosphorylation assay. In kind it is cell-based, human. Particulars: EGF stimulated, average of at least two measurements, read-out: pERK IC50. The method, then: Low IC50 values are indicative of high potency of the SOS1 inhibitor compounds in this assay setting.
ERK phosphorylation assays are performed using the following human cell line: • NCI-H358 SOS2 KO (Hofmann, Gmachl, Ramharter et al, Cancer Discov. 2021, 11(1):142-15): human lung cancer with a KRAS G12C mutation;
NCI-H358 SOS2 KO are seeded at 50000 cells per well in 60 μL of DMEM with 2% FBS, in Greiner TC 384 plates. The cells are incubated overnight in an incubator at 37° C. and 5% CO2 in a humidified atmosphere. 60 nL compound solution (10 mM DMSO stock solution) is then added using a Beckman Coulter Labcyte Echo 550 device. After 50 min incubation in the aforementioned incubator, 5 nl EGF are added to each well for a final concentration of approx. 8 ng/mL using a Beckman Coulter Labcyte Echo 550 device and cells are incubated for another 10-15 minutes before lysis. The medium is removed, and the cells are lysed by addition of 20 μL of 1.6-fold lysis buffer from the AlphaLISA SureFire Ultra pERK1/2 (Thr202/Tyr204) Assay Kit with added protease inhibitors. After 20 minutes of incubation at rt with shaking, 6 μL of each lysate sample is transferred to a 384-well Proxiplate and analyzed for pERK (Thr202/Tyr204) with the AlphaLISA SureFire Ultra pERK1/2 (Thr202/Tyr204) Assay Kit. 3 μL Acceptor Mix and 3 μL Donor Mix are added under subdued light and incubated for 2 h at rt in the dark, before the signal is measured on a Perkin Elmer Envision plate reader using 384 AlphaScreen settings for Proxiplates. Data are fitted by iterative calculation with variable hill slope. The sigmoidal curve slope is fitted using a default fitting curve to ascertain IC50 values.
Table 2: Erk Phosphorylation assay. The value indicates an average value of at least two measurements.

For a further data set, the target named is P450 3A4 (Homo sapiens (Human), UniProt P08684). Description: Cytochrome P450 isoenzyme inhibition assay (P450 3A4, midazolam). It counts as in vitro ADME. The settings on record: human liver microsomes, Midazolam as substrate; read-out: CYP3A4 inhibition IC50. The method, then: For the following cytochrome P450 isoenzymes, these substrates and metabolic reactions are monitored: P450 3A4: hydroxylation of Midazolam (MDZ).
The final incubation volume contains TRIS buffer (0.1 M), MgCl2 (5 mM), a certain concentration of human liver microsomes dependent on the P450 isoenzyme measured (P450 3A4: 0.1 mg/ml) and a certain concentration of the individual substrate for each isoenzyme (P450 3A4: Midazolam 5 μM).
The effect of the test compound is determined at five different concentrations in duplicate (e.g. highest concentration 50 μM with subsequent serial 1:4 dilutions) or without test compound (high control). Following a short preincubation period, reactions are started with the cofactor (NADPH, 1 mM) and stopped by cooling the incubation down to 8° C. and subsequently by addition of one volume of ACN. An internal standard solution—usually the stable isotope of the formed metabolite—is added after quenching of incubations. Peak area analyte (=metabolite formed) and internal standard is determined by LC-MS/MS. The resulting peak area ratio analyte to internal standard in these incubations is compared to a control activity containing no test compound. Within each of the assay runs, the IC50 of a positive control inhibitor dependent on the P450 isoenzyme measured (P450 3A4: ketoconazole) is determined. The assay results are plotted against compound concentrations to calculated IC50 values (half maximal inhibitory concentrations) for inhibitory compounds utilizing Software IDBS E-WorkBook.
Table 4: Inhibition of P450 isoenzyme 3A^4.
A general note: Liver microsomes are vesicles of endoplasmic reticulum, rich in cytochrome P450 enzymes.

The next data set concerns human hepatocytes. Description: Metabolic stability in human hepatocytes. The settings on record: 1 μM test compound, 50% human serum, percentage of liver blood flow.
The mark [2] stands for this setting: Homo sapiens, NCI-H358, NCI-H358 SOS2 KO cells.

Chain of SOS1 and KRAS G12D (Q07889 564-1049, stated change not applied): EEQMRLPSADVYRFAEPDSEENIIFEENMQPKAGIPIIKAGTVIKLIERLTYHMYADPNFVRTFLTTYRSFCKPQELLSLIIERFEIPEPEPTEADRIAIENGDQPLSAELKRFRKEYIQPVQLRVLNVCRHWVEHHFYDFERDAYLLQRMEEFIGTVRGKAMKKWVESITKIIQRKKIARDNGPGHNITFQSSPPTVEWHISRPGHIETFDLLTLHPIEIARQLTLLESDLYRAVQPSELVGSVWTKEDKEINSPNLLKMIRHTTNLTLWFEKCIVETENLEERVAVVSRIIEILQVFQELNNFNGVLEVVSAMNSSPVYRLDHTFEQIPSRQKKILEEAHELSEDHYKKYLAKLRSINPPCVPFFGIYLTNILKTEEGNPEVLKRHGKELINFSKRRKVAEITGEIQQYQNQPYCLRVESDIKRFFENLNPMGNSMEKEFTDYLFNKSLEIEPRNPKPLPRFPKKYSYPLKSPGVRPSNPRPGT
Chain of SOS1 and KRAS G12C (Q07889 564-1049, stated change not applied): as above
Chain of P450 3A4 (P08684 whole entry): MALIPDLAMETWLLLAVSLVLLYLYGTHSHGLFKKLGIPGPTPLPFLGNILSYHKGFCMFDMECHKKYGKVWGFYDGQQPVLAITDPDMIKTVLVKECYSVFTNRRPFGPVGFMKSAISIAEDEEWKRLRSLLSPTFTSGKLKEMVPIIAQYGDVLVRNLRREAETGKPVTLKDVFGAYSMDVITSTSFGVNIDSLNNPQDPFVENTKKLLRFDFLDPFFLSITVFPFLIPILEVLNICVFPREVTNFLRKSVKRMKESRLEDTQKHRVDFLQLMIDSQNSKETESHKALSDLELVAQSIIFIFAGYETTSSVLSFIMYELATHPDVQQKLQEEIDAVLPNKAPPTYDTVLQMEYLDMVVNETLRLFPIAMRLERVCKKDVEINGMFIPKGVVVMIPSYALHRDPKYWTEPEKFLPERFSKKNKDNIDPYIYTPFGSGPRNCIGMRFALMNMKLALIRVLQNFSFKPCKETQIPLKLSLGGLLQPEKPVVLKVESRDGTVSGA

As for `C[C@@H](NC(=O)c1cc(N2CCC(N3CCCCC3)CC2)c2ncnn2c1)c1cccc(C(F)(F)F)c1F` [Example E49], the IC50 (commonly the midpoint of a concentration-inhibition curve) is 49 nM at SOS1 and KRAS G12C; 43 nM at SOS1 and KRAS G12D; 250 nM in data set [1] (setting [2]); > 50000 nM on P450 3A4. Further, in the data set on human hepatocytes, the “Hepatic clearance - QH[%] in human hepatocytes” value (“Hepatic clearance - QH[%]” below) is on record as 23%.

For `C[C@@H](NC(=O)c1cc(N2CCC(N(C)CC3(O)CC3)CC2)c2ncnn2c1)c1cccc(C(F)F)c1F` [Example E13], the IC50 at SOS1 and KRAS G12C was 52 nM; on SOS1 and KRAS G12D it was 54 nM; in data set [1] (setting [2]) it was 288 nM; on P450 3A4, > 50000 nM. Further, the “Hepatic clearance - QH[%]” value with human hepatocytes came out at 21%.

For `C[C@@H](NC(=O)c1cc(N2CCC(NC3CCCC3(C)O)CC2)c2ncnn2c1)c1cccc(C(F)(F)F)c1F` (single isomer, unassigned) [Example trans-E53a], the IC50 is 24 nM at SOS1 and KRAS G12C; 24 nM at SOS1 and KRAS G12D; 143 nM in data set [1] (NCI-H358 SOS2 KO cells); > 50000 nM at P450 3A4. Also, the “Hepatic clearance - QH[%]” value in the data set with human hepatocytes was 45%.

Turning to `C[C@@H](NC(=O)c1cc(N2CCC(N3CCC4(CC4)C3)CC2)c2ncnn2c1)c1cccc(C(F)(F)F)c1F` [Example E33], the IC50 at SOS1 and KRAS G12C was 80 nM; at SOS1 and KRAS G12D, 73 nM; in data set [1] (setting [2]), 326 nM; at P450 3A4 it was > 50000 nM. The “Hepatic clearance - QH[%]” value in the data set on human hepatocytes came to 15%.

As for `C[C@@H](NC(=O)c1cc(N2CCC(N3CCCC(O)CC3)CC2)c2ncnn2c1)c1cccc(C(F)F)c1F` (single isomer, unassigned) [Example E17a], the half-maximal inhibitory concentration (IC50) is 39 nM on SOS1 and KRAS G12C; 28 nM on SOS1 and KRAS G12D; 94 nM in data set [1] (NCI-H358 SOS2 KO cells); > 50000 nM at P450 3A4. For the same compound, the “Hepatic clearance - QH[%]” value in the data set on human hepatocytes is 13%.

For `C[C@@H](NC(=O)c1cc(N2CCC(N3CCO[C@@H](CO)C3)CC2)c2ncnn2c1)c1cccc(C(F)F)c1F` [Example E15], the IC50 at SOS1 and KRAS G12C was 68 nM; on SOS1 and KRAS G12D it was 46 nM; in data set [1] (setting [2]), 554 nM; on P450 3A4 it was > 50000 nM. The “Hepatic clearance - QH[%]” value in the data set with human hepatocytes is reported as 31%.

In the case of `C[C@@H](NC(=O)c1cc(N2CCC3CCNC3C2)c2ncnn2c1)c1cccc(C(F)(F)F)c1F` (single isomer, unassigned) [Example cis-E52a], the IC50 on SOS1 and KRAS G12C was 59 nM; at SOS1 and KRAS G12D, 58 nM; in data set [1] (NCI-H358 SOS2 KO cells), 115 nM; on P450 3A4, > 50000 nM. For the same compound, the “Hepatic clearance - QH[%]” value in the data set on human hepatocytes turned out to be 7%.

Regarding `C[C@@H](NC(=O)c1cc([C@H]2CC[C@H](N3CCC(F)C(O)C3)CC2)c2ncnn2c1)c1cccc(C(F)(F)F)c1F` (single isomer, unassigned) [Example trans-E70a], the IC50 on SOS1 and KRAS G12C is 29 nM; at SOS1 and KRAS G12D, 34 nM; in data set [1] (setting [2]), 259 nM; at P450 3A4, > 50000 nM. In addition, the “Hepatic clearance - QH[%]” value in the data set on human hepatocytes is listed as 25%.

As to `C[C@@H](NC(=O)c1cc(N2CCC(N3CCCC(O)CC3)CC2)c2ncnn2c1)c1cccc(C(F)(F)F)c1F` (stereo partly shown) [Example E43b], the “Hepatic clearance - QH[%]” value in the data set with human hepatocytes came to 25%.

With `C[C@@H](NC(=O)c1cc(N2CCC(N3CC4CC4C3CO)CC2)c2ncnn2c1)c1cccc(C(F)F)c1F` (single isomer, unassigned) [Example cis-E11a], the IC50 is 22 nM on SOS1 and KRAS G12C; 15 nM on SOS1 and KRAS G12D; 173 nM in data set [1] (setting [2]); > 50000 nM at P450 3A4. The “Hepatic clearance - QH[%]” value with human hepatocytes is recorded as 38%.

For the compound `C[C@@H](NC(=O)c1cc(N2CCC(NC3COCC3O)CC2)c2ncnn2c1)c1cccc(C(F)(F)F)c1F` (single isomer, unassigned) [Example cis-E41a], the IC50 was 50 nM at SOS1 and KRAS G12C; 38 nM on SOS1 and KRAS G12D; 463 nM in data set [1] (NCI-H358 SOS2 KO cells); > 50000 nM at P450 3A4. Also, the “Hepatic clearance - QH[%]” value in the data set with human hepatocytes was 37%.

On to `C[C@@H](NC(=O)c1cc(N2CCC(N3CC4CC4C3CO)CC2)c2ncnn2c1)c1cccc(C(F)F)c1F` (single isomer, unassigned) [Example cis-E11b], for which the IC50 at SOS1 and KRAS G12C is 28 nM; at SOS1 and KRAS G12D, 19 nM; in data set [1] (NCI-H358 SOS2 KO cells), 145 nM; at P450 3A4 it was > 50000 nM. In addition, the “Hepatic clearance - QH[%]” value in the data set on human hepatocytes worked out at 27%.

In the case of `C[C@@H](NC(=O)c1cc(N2CCC(N3CCO[C@H](CO)C3)CC2)c2ncnn2c1)c1cccc(C(F)F)c1F` [Example E14], the IC50 at SOS1 and KRAS G12C was 69 nM; at SOS1 and KRAS G12D it was 51 nM; in data set [1] (setting [2]) it was 490 nM; at P450 3A4, > 50000 nM. Also, in the data set on human hepatocytes, the “Hepatic clearance - QH[%]” value was 31%.
